According to patent US4778785A, “Pharmaceutical composition for retarding and reducing cachexia” (Kaken Pharmaceutical Co., Ltd., priority 1985, dated 1988):
Like-named read-outs stand apart in the source and are kept apart here.

How the values were obtained:
[1] = Clinical Example 1: treatment of cachexia patient with 4,6-O-benzylidene-D-glucose; format: in vivo, human; settings: 1,200 mg i.v. once a day; for body weight: before: 29 kg
Text: Patient
Diagnosis: Cancer in right ovary, Cachexia caused by metastasis of cancer to peritoneum and liver
Although the adbomen of the patient was opened by an abdominal operation, it was impossible to remove the diseased portions and thus the abdomen was closed without extracting the affected portions. The patient could eat very little and thus was supplied with nutritive substances by instillations every day. The body weight of the patient decreased to 29 kg, and they were confined to bed.

[2] = finding of effectiveness in retarding and reducing cachexia; format: in vivo; settings: benzaldehyde and/or 4,6-O-benzylidene-D-glucose
[3] = Japanese Patent Laid-Open 108027/1977 and 70428/1979; cited from earlier work
in vivo = settings: rat, sc
rats = experiment: acute toxicity (LD50) by subcutaneous injection of rats; settings: acute toxicity, rats, subcutaneous injection
[4] = human, in vivo
Text: (§1) Chemotherapy was tried to administering mitomycin, 5-fluorouracil and cytarabine. […] For these reasons, chemotherapy was stopped after three weeks.

[5] = prior chemotherapy of the patient of Clinical Example 1, adverse reactions; settings: chemotherapy with mitomycin, 5-fluorouracil and cytarabine together, stopped after three weeks
Text: as §1

[6] = Clinical Example 3: treatment of cachexia patient with benzaldehyde; format: in vivo, human; settings: for Precipitation of Blood: before dosage 78; for Glutamic Acid Pyruvic Acid Transaminase (GPT): before dosage 98; for Glutamic Acid Oxaloacetic Acid Transaminase (GOT): before dosage 120; for α-fetoprotein (AFP): before dosage 20,000
Text: Patient
Diagnosis: Symptoms of cachexia due to lung cancer (the type of cancerous tissue not being specified)
Through CT scan and echo examinations, a total of four tumors were observed, one having the dimensions of 7 cm×7 cm and each of the other three metastasized tumors having a diameter of about 1 cm. Severe symptoms due to cachexia were found.
First Day: The symptoms due to cachexia were growing worse.

[7] = acute toxicity (LD50) by subcutaneous injection of rats; settings: rat, in vivo, sc
[8] = 25 mg tablets, 5 tablets 4 times a day, three months

OC1O[C@@H]2COC(c3ccccc3)O[C@H]2[C@H](O)[C@H]1O (stereo partly drawn) [4,6-O-Benzylidene-D-glucose, 4,6-O-benzylidene-D-glucose]
nausea ([1]; eighth day): Nausea disappeared
food intake ([1]; eighth day, before: could eat very little): the patient could take meals
body weight ([1]; eighty-fifth day): 35 kg
cancer in other portions ([1]; fifty-sixth day): No change was observed
cancer of the liver (left) ([1]; fifty-sixth day): slightly reduced
capability of work ([1]; fifty-sixth day): capable of doing light work
symptoms of cachexia ([1]; fifty-sixth day): disappeared completely
body weight ([1]; fifty-sixth day): 31 kg
mobility ([1]; nineteenth day, before: confined to bed): The patient could sit up in bed
cachexia symptoms ([1]; thirtieth day): cachexia symptoms were alleviated
mobility ([1]; thirtieth day): the patient could walk
dimensions of the tumor ([1]; thirtieth day, CT scan): the dimensions of the tumor had not been reduced
effect on cachexia [2]: effective in retarding and reducing cachexia
carcinostatic function [3]: exhibit carcinostatic functions
LD50 (in vivo): 4000 mg/kg
toxicity (rats): extremely low toxicities

O=c1[nH]cc(F)c(=O)[nH]1 [5-fluorouracil]
adverse reactions [4]: intensive adverse reactions, such as anorexia, nausea and Leukopenia
cachexia under chemotherapy [5]: the cachexia grew worse and worse

O=Cc1ccccc1 [Benzaldehyde]
appetite ([6]; 25 mg benzaldehyde tablets, 5 tablets 4 times a day, one month): the patient recovered their appetite
values of AFP, GOT and GPT ([6]; 25 mg tablets, 5 tablets 4 times a day, monthly): lowered favorably every month unitl they reached normal levels
body weight [6, 8]: began to increase
symptoms due to cachexia [6, 8]: Almost all of the symptoms due to cachexia disappeared
body weight ([6]; one month dosage, before dosage 46): 46 kg
Precipitation of Blood ([6]; one month dosage): 60
Glutamic Acid Pyruvic Acid Transaminase (GPT) ([6]; one month dosage): 70
Glutamic Acid Oxaloacetic Acid Transaminase (GOT) ([6]; one month dosage): 87
α-fetoprotein (AFP) ([6]; one month dosage): 15,000 ng/ml
body weight ([6]; three month dosage, before dosage 46): 47 kg
Precipitation of Blood ([6]; three month dosage): 40
Glutamic Acid Pyruvic Acid Transaminase (GPT) ([6]; three month dosage): 35
Glutamic Acid Oxaloacetic Acid Transaminase (GOT) ([6]; three month dosage): 38
α-fetoprotein (AFP) ([6]; three month dosage): 2,200 ng/ml
body weight ([6]; two month dosage, before dosage 46): 46 kg
Precipitation of Blood ([6]; two month dosage): 48
Glutamic Acid Pyruvic Acid Transaminase (GPT) ([6]; two month dosage): 40
Glutamic Acid Oxaloacetic Acid Transaminase (GOT) ([6]; two month dosage): 72
α-fetoprotein (AFP) ([6]; two month dosage): 7,700 ng/ml
effect on cachexia [2]: effective in retarding and reducing cachexia
carcinostatic function [3]: exhibit carcinostatic functions
LD50 [7]: 5000 mg/kg
toxicity (rats): extremely low toxicities

Nc1ccn([C@@H]2O[C@H](CO)[C@@H](O)[C@@H]2O)c(=O)n1 [cytarabine]
adverse reactions [5]: intensive adverse reactions, such as anorexia, nausea and Leukopenia
cachexia under chemotherapy [5]: the cachexia grew worse and worse

CO[C@@]12[C@H](COC(N)=O)C3=C(C(=O)C(C)=C(N)C3=O)N1C[C@@H]1N[C@@H]12 [mitomycin]
adverse reactions [5]: intensive adverse reactions, such as anorexia, nausea and Leukopenia
cachexia under chemotherapy [5]: the cachexia grew worse and worse
